Reference: patent publication US10463661B2, “Anthelmintic compounds” (MERIAL INC., priority 2014, dated 2019)

Legend:
[1] = system: Haemonchus contortus; experiment: Screening method to test activity against Haemonchus contortus L1 larvae (Method A); assay type: cell-based; details: 96 h, read-out: motility inhibition
Protocol: Screening method to test activity of compounds against Haemonchus contortus.
Twenty L1 Haemonchus contortus larvae were added to wells of a microtitre plate containing a nutrient medium and the test compound in DMSO. An analysis was conducted at 4 days to determine the extent of development of the larvae. Larvae exposed to DMSO alone served as controls. Compounds 3, 6, 12, 15, 43, 44, 45, 46, 47, 48, 49, & 50 gave at least 90% motility inhibition at a test concentration of less than or equal to <1 μM when assessed at the 4 day time point.

[2] = Permeability in the CACO-2/TC7 in vitro model (Method C); assay type: in vitro ADME; details: human, apical to basolateral, pH gradient 6.5/7.4 and BSA gradient 0.5%/5%, 20 μM compound
Source text: Permeability of Compounds.
Permeability of a compound across the epithelium cells along the gastrointestinal tract is an important limiting factor for the oral absorption and systemic availability of the compound. An in vitro model utilizing Caco-2/TC7 cells is employed to assess the permeability characteristics of new chemical entities (NCEs). For orally administered compounds, absorption depends on the intrinsic permeability across the intestinal epithelium and whether the active agent is a substrate or inhibitor of uptake or efflux transporters.
The permeability studies were performed under standard conditions in the apical to basolateral (A→B) direction with a pH gradient and a BSA gradient (standard apical medium (0.5% BSA at pH 6.5)/standard basal medium (5% BSA at pH 7.4)); conditions that most closely reflect the conditions in the in vivo situation. Samples were deproteinized by the addition of 400 μl acetonitrile to 200 μl sample, followed by a 20-minute centrifugation at 1730 g. […] Analytical conditions: Supernatants recovered following centrifugation were analysed by LC/MS/MS using a reverse phase column and the mobile phases delivered at 0.3 ml/minute in a gradient: water (A) and acetonitrile (B) (each with 0.1% formic acid). […]

[3] = system: ivermectin-resistant strains of Haemonchus contortus; experiment: Efficacy against ivermectin-resistant endoparasites in sheep (FIG. 2); assay type: in vivo; details: 0.2 mg/kg orally
[4] = system: ivermectin-resistant strains of Ostertagia circumcincta; experiment: as above; assay type: in vivo; details: 0.2 mg/kg orally
[5] = system: ivermectin-resistant strains of Trichostrongylus columbriformis; experiment: as above; assay type: in vivo; details: 0.2 mg/kg orally

Row | Molecule | inhibition at 1 µM [1] [%] | Papp A→B at 20 μM [2] [×10⁻⁶ cm/s] | efficacy [3] | efficacy [4] | efficacy [5]
1 | N#Cc1ccc(N2CCC(OCC(=O)N3CCN(c4nc5cc(C(F)(F)F)ccc5s4)CC3)CC2)cc1C(F)(F)F [Compound 3, 4-[4-[2-oxo-2-[4-[5-(trifluoromethyl)-1,3-benzothiazol-2-yl]piperazin-1-yl]ethoxy]-1-piperidyl]-2-(trifluoromethyl)benzonitrile] | ≥ 90 | 2.8 |  |  | 
2 | N#Cc1ccc(N2CC(OCC(=O)N3CCN(c4nc5cc(C(F)(F)F)ccc5s4)CC3)C2)cc1C(F)(F)F [Compound 6, 4-[3-[2-oxo-2-[4-[5-(trifluoromethyl)-1,3-benzothiazol-2-yl]piperazin-1-yl]ethoxy]azetidin-1-yl]-2-(trifluoromethyl)benzonitrile] | ≥ 90 |  |  |  | 
3 | ivermectin |  |  | almost completely inactive | less than 30% | less than 60%
